Assay results taken from patent publication US6448006B1, “Methods and compositions for reducing bacterial tolerance to antibacterials disinfectants and organic solvents” (priority 1997, dated 2002).
Read-outs that look alike come from different tables or passages of the source.

Key:
[1] = values in parentheses in column heads; cited from earlier work
[2] = system: E. coli strains bearing mar, soxS or robA plasmids; format: cell-based
From the text: Organic solvent tolerance mediated by the marA, soxS, robA and acrAB loci of E. coli is described in White et al. (J. Bacteriol. 179:6122-6126, 1997).

marA mRNA = test: Northern blot analysis of marA mRNA with inducer salicylate; format: cell-based, E. coli; details: Mar mutant AG102, mutants AP5 and NP3.5 GP
From the text: Over expression was also seen in mutant APS3 (data not shown). […] We concluded that AP5, NP3.5GP, and APS3, but not AP1, were probably Mar mutants.

[3] = AG100-B (acrR mutant), no plasmid
[4] = AG100K (marCORAB::kan), no plasmid
[5] = AG102 (marR mutation), no plasmid
[6] = AG102-A (marRl, ΔacrAB), no plasmid

C1CCCCC1 [cyclohexane]
+ +: Growth in presence of organic solvent ([2]; AG100, plasmid pMAK-TU1 & TU2) | Growth in presence of organic solvent ([2]; AG100, plasmid pSRob) | Growth in presence of organic solvent ([2]; AG100, plasmid pSXS) | Growth in presence of organic solvent ([2]; AG100K, plasmid pMAK-TUI & TU2) | Growth in presence of organic solvent ([2]; AG100K, plasmid pSRob) | Growth in presence of organic solvent ([2]; AG100K, plasmid pSXS) | Growth in presence of organic solvent [2, 5] | Growth in presence of organic solvent ([2]; DJ901, plasmid pMAK-TU1 & TU2) | Growth in presence of organic solvent ([2]; DJ901, plasmid pSRob) | Growth in presence of organic solvent ([2]; DJ901, plasmid pSXS) | Growth in presence of organic solvent ([2]; GC4468, plasmid pMAK-TU1 & TU2) | Growth in presence of organic solvent ([2]; GC4468, plasmid pSRob) | Growth in presence of organic solvent ([2]; GC4468, plasmid pSXS) | Growth in presence of organic solvent ([2]; JHC1069 (cfxB1), no plasmid) | Growth in presence of organic solvent ([2]; JTG1078 (soxR105), no plasmid) | Growth in presence of organic solvent ([2]; MCH164, plasmid pMAK-TU1 & TU2) | Growth in presence of organic solvent ([2]; RA4468, plasmid pMAK-TU1 & TU2) | Growth in presence of organic solvent ([2]; RA4468, plasmid pSRob) | Growth in presence of organic solvent ([2]; RA4468, plasmid pSXS)
−: Growth in presence of organic solvent ([2]; AG100 (wild-type), no plasmid) | Growth in presence of organic solvent ([2]; AG100, plasmid pMAK-TU1) | Growth in presence of organic solvent ([2]; AG100-A (ΔacrAB), no plasmid) | Growth in presence of organic solvent [2, 4] | Growth in presence of organic solvent ([2]; AG100K, plasmid pMAK-TU1) | Growth in presence of organic solvent [2, 6] | Growth in presence of organic solvent ([2]; AG102-A, plasmid pSMarAB) | Growth in presence of organic solvent ([2]; AG102-A, plasmid pSRob) | Growth in presence of organic solvent ([2]; AG102-A, plasmid pSXS) | Growth in presence of organic solvent ([2]; DJ901 (ΔsoxRS), no plasmid) | Growth in presence of organic solvent ([2]; DJ901, plasmid pMAK-TU1) | Growth in presence of organic solvent ([2]; GC4468 (wild-type), no plasmid) | Growth in presence of organic solvent ([2]; GC4468, plasmid pMAK-TU1) | Growth in presence of organic solvent ([2]; MCH164 (Δmar), no plasmid) | Growth in presence of organic solvent ([2]; MCH164, plasmid pMAK-TU1) | Growth in presence of organic solvent ([2]; MCH164, plasmid pMAK-TU2) | Growth in presence of organic solvent ([2]; MCH164, plasmid pSMarAB) | Growth in presence of organic solvent ([2]; MCH164, plasmid pSRob) | Growth in presence of organic solvent ([2]; MCH164, plasmid pSXS) | Growth in presence of organic solvent ([2]; RA4468 (robA::kan), no plasmid) | Growth in presence of organic solvent ([2]; RA4468, plasmid pMAK-TU1)
+ ((+) visible growth(≦100 colonies)): Growth in presence of organic solvent ([2]; AG100, plasmid pMAK-TU2) | Growth in presence of organic solvent ([2]; AG100, plasmid pSMarAB) | Growth in presence of organic solvent [2, 3] | Growth in presence of organic solvent ([2]; AG100K, plasmid pMAK-TU2) | Growth in presence of organic solvent ([2]; AG100K, plasmid pSMarAB) | Growth in presence of organic solvent ([2]; DJ901, plasmid pMAK-TU2) | Growth in presence of organic solvent ([2]; DJ901, plasmid pSMarAB) | Growth in presence of organic solvent ([2]; GC4468, plasmid pMAK-TU2) | Growth in presence of organic solvent ([2]; GC4468, plasmid pSMarAB) | Growth in presence of organic solvent ([2]; RA4468, plasmid pMAK-TU2) | Growth in presence of organic solvent ([2]; RA4468, plasmid pSMarAB)
cyclohexane (3.4): log Pow [1]

CCCCCC [n-hexane]
+ +: Growth in presence of organic solvent ([2]; AG100 (wild-type), no plasmid) | Growth in presence of organic solvent ([2]; AG100, plasmid pMAK-TU1) | Growth in presence of organic solvent ([2]; AG100, plasmid pMAK-TU1 & TU2) | Growth in presence of organic solvent ([2]; AG100, plasmid pMAK-TU2) | Growth in presence of organic solvent ([2]; AG100, plasmid pSMarAB) | Growth in presence of organic solvent ([2]; AG100, plasmid pSRob) | Growth in presence of organic solvent ([2]; AG100, plasmid pSXS) | Growth in presence of organic solvent [2, 3] | Growth in presence of organic solvent ([2]; AG100K, plasmid pMAK-TU2) | Growth in presence of organic solvent ([2]; AG100K, plasmid pMAK-TUI & TU2) | Growth in presence of organic solvent ([2]; AG100K, plasmid pSMarAB) | Growth in presence of organic solvent ([2]; AG100K, plasmid pSRob) | Growth in presence of organic solvent ([2]; AG100K, plasmid pSXS) | Growth in presence of organic solvent [2, 5] | Growth in presence of organic solvent ([2]; DJ901 (ΔsoxRS), no plasmid) | Growth in presence of organic solvent ([2]; DJ901, plasmid pMAK-TU1) | Growth in presence of organic solvent ([2]; DJ901, plasmid pMAK-TU1 & TU2) | Growth in presence of organic solvent ([2]; DJ901, plasmid pMAK-TU2) | Growth in presence of organic solvent ([2]; DJ901, plasmid pSMarAB) | Growth in presence of organic solvent ([2]; DJ901, plasmid pSRob) | Growth in presence of organic solvent ([2]; DJ901, plasmid pSXS) | Growth in presence of organic solvent ([2]; GC4468 (wild-type), no plasmid) | Growth in presence of organic solvent ([2]; GC4468, plasmid pMAK-TU1) | Growth in presence of organic solvent ([2]; GC4468, plasmid pMAK-TU1 & TU2) | Growth in presence of organic solvent ([2]; GC4468, plasmid pMAK-TU2) | Growth in presence of organic solvent ([2]; GC4468, plasmid pSMarAB) | Growth in presence of organic solvent ([2]; GC4468, plasmid pSRob) | Growth in presence of organic solvent ([2]; GC4468, plasmid pSXS) | Growth in presence of organic solvent ([2]; JHC1069 (cfxB1), no plasmid) | Growth in presence of organic solvent ([2]; JTG1078 (soxR105), no plasmid) | Growth in presence of organic solvent ([2]; MCH164, plasmid pMAK-TU1 & TU2) | Growth in presence of organic solvent ([2]; MCH164, plasmid pMAK-TU2) | Growth in presence of organic solvent ([2]; MCH164, plasmid pSMarAB) | Growth in presence of organic solvent ([2]; MCH164, plasmid pSRob) | Growth in presence of organic solvent ([2]; MCH164, plasmid pSXS) | Growth in presence of organic solvent ([2]; RA4468, plasmid pMAK-TU1 & TU2) | Growth in presence of organic solvent ([2]; RA4468, plasmid pMAK-TU2) | Growth in presence of organic solvent ([2]; RA4468, plasmid pSMarAB) | Growth in presence of organic solvent ([2]; RA4468, plasmid pSRob) | Growth in presence of organic solvent ([2]; RA4468, plasmid pSXS)
−: Growth in presence of organic solvent ([2]; AG100-A (ΔacrAB), no plasmid) | Growth in presence of organic solvent [2, 6] | Growth in presence of organic solvent ([2]; AG102-A, plasmid pSMarAB) | Growth in presence of organic solvent ([2]; AG102-A, plasmid pSRob) | Growth in presence of organic solvent ([2]; AG102-A, plasmid pSXS)
+ ((+) visible growth(≦100 colonies)): Growth in presence of organic solvent [2, 4] | Growth in presence of organic solvent ([2]; AG100K, plasmid pMAK-TU1) | Growth in presence of organic solvent ([2]; MCH164 (Δmar), no plasmid) | Growth in presence of organic solvent ([2]; MCH164, plasmid pMAK-TU1) | Growth in presence of organic solvent ([2]; RA4468 (robA::kan), no plasmid) | Growth in presence of organic solvent ([2]; RA4468, plasmid pMAK-TU1)

CCCCC [n-pentane]
grew: Growth in presence of organic solvent ([2]; AG102, Mar mutant of AG100, data not shown)

O=C(O)c1ccccc1O [salicylate]
enhanced: Effect of inducer on over expression of marA mRNA (marA mRNA)
